Measured values: patent EP0100983A1, “Steroid compounds with choleretic activity, a process for their preparation, and therapeutic compounds which contain them as active principle” (PROTER S.p.A., priority 1982, dated 1984)
Structures can show the parent of a compound that is named as a salt.

Columns and labels:
[1] = test system: male albino rats of Wistar stock; experiment: Choleretic activity in bile-duct (choledocus) cannulated rats, method of D'Armour and coll.: bile flow (test a) and bile dry residue (test b); assay type: in vivo; conditions: rat
From the text: By way of example, details are given of the activity of 3α,7β-dihydroxy-6/3-cholan-24-oyl acetic acid (A) and of its trimebutine salt (B) compared with ursodeoxycholic acid (C), using the method of D'Armour and coll. (J. Pharmacol. Exp. Theor. 133, 400 (1961)).
This method consists essentially of cannulating the choledocus of the treated animals and collecting the bile before and after treatment with the drugs.
24 male albino rats of Wistar stock were used having an average weight of 400 g and divided into 4 batches of 6 animals each.
In the method used, after the surgical cannulation, the bile was allowed to flow out for about 30-45 minutes in order to regulate the flow, after which the basic bile was collected for 60 minutes.
After this time, the drug was administered into the subpyloric duodenal tract at a dose of 0.5 mM/kg, and the bile was collected in suitable graduated test tubes, the samples of each animal being split into periods of exactly 60 minutes, for a time of 3 hours after treatment. The following were then determined for each animal: • a) the quantity of bile which had flown out after each hour, and • b) the dry residue obtained after drying each sample under vacuum.
The tested compounds were solubilised with stoichiometric quantities of M NaOH, to obtain solutions or suspensions at pH 10.
Physiological solution (S.F.) adjusted to pH 10 by M NaOH was used for the control group.
The data obtained in the described experiments by administering equimolar doses of the products A and B and of the comparison drug C are shown on the accompanying graphs.

Wistar rats = experiment: Acute toxicity by oral administration in the rat; assay type: in vivo
Method: Acute toxicity was also tested by oral administration of the acid A and the salt B in the rat in comparison with ursodeoxycholic acid. 60 Wistar rats of the two sexes were used having an average weight of 200 g, divided randomly into three batches of 10 males and 10 females and treated orally by gastric probe with the following products: • batch 1: ursodeoxycholic acid (C) - 15% suspension in a 10% solution of gum arabic; […] equivalent to 3 g/kg of product; • batch 2: product (A) - 15% suspension in a 10% solution of gum arabic: 20 ml/kg equivalent to 3 g/kg of product; • batch 3: product (B) - 15% suspension in a 10% solution of gum arabic: 20 ml/kg equivalent to 3 g/kg of product.
The animals, kept under observation for two weeks, registered no case of death or other toxicity symptom.

guinea pig ileum = experiment: In vitro antispastic activity on the guinea pig ileum against acetylcholine bromide; conditions: relative to trimebutine hydrochloride
From the text: Compound B was also used in "in vibro" antispastic activity tests on the guinea pig ileum, using acetylcholine bromide as […] in canparison with trimebutine hydrochloride.

For `CC(CCC(=O)OCC(=O)O)C1CCC2C3C(O)CC4CC(O)CCC4(C)C3CCC12C` (stereo not drawn) [A, 3α,7β-dihydroxy-6β-cholan-24-oyl acetic acid], the “maximum intensity action on the bile flow” value ([1]; 0.5 mM/kg into the subpyloric duodenal tract, compared with ursodeoxycholic acid (C) at equal dose, Figure 1) was “practically equivalent to that of the comparison drug”, the “activity on the bile flow after 1 hour” value ([1]; 0.5 mM/kg intraduodenal, 1 hour after treatment, relative to comparison drug C, Figure 1) was “slightly less” and the “activity on the bile flow after 2 hours” value ([1]; 0.5 mM/kg intraduodenal, 2 hours after treatment, relative to comparison drug C, Figure 1) was “greater”. The “dry residual content of the bile (indicative of the bile salt content), maximum values” ([1]; 0.5 mM/kg intraduodenal, compared with ursodeoxycholic acid, Figure 2) was “practically equal to that obtained after treatment with ursodeoxycholic acid” and the “tolerability when administered orally in a single dose” value (Wistar rats; single oral dose 3 g/kg) was “very well tolerated”.
`CC(CCC(=O)OCC(=O)O)C1CCC2C3C(O)CC4CC(O)CCC4(C)C3CCC12C` (stereo not drawn) [Compound B, 2-dimethylamino-2-phenylbutyl 3,4,5-trimethoxybenzoate salt of 3α ,7β-dihydroxy-6β-cholan-24-oyl acetic acid] was tested, and the “activity on the bile flow after 3 hours” value ([1]; 0.5 mM/kg intraduodenal, 3 hours after treatment, Figure 1) was “high”, the antispastic activity (guinea pig ileum) was “approximately double that of trimebutine” and the “toxicity (concluding statement)” value (Wistar rats; oral) was “absolute absence of toxicity”.
`C[C@H](CCC(=O)O)[C@H]1CC[C@H]2[C@@H]3[C@@H](O)C[C@@H]4C[C@H](O)CC[C@]4(C)[C@H]3CC[C@]12C` [ursodeoxycholic acid, 3α ,7β-dihydroxy-6β-cholan-24-oic acid, reference compound] was tested, and the “duration of the action” value ([1]; 0.5 mM/kg intraduodenal, bile dry residue test (Figure 2)) was 1 h.
